Source: patent publication US20220125987A1, “WOUND CLOSURE DEVICES COMPRISING PROTOCATECHUIC ACID” (priority 2020, published 2022)
Entries after “also recorded” stand apart in the source; their conditions may differ.

Legend:
[1] = tested on: Pseudomonas aeruginosa; assay: Kirby-Bauer disc diffusion antimicrobial susceptibility testing; format: cell-based
[2] = tested on: P. acnes; assay: as above; format: cell-based
[3] = tested on: P. aeruginosa (ACTA 9027); assay: Mouse tape-stripped skin wound infection model (Example 2); format: in vivo; settings: day five; for bacterial burden: topical aqueous 50, 100, 200 mM at two hours and daily for four days, none statistically significant; for most effective dose concentration: topical aqueous
[4] = tested on: P. aeruginosa (ACTA 27853); assay: Mouse tape-stripped skin wound infection model (Example 3); format: in vivo; settings: for bacterial burden: 48 and 96 hours
Description: Mice had back skin tape stripped and the stripped site (wound) was infected with P. aeruginosa (ACTA 27853). The test reagents were applied topically in an aqueous solution on the stripped site at two hours and daily on day 1, 2 and 3.
C3G, an anthocyanin and its main metabolite PCA were formulated and tested at several doses. The aqueous carrier was water. The C3G formulation included 100 mM and 200 mM dose concentrations and the PCA formulation included 25 and 50 mM dose concentrations.

[5] = tested on: IGF-1, TGF-β, EGF; assay: Local growth factor levels in normal (unstripped, uninfected) mouse skin (Example 4); format: in vivo, mice; settings: 100 μM topical, normal rodent skin
Description: Mice were shaved but unstrapped and uninfected (normal rodent skin). The test reagents were applied topically in an aqueous solution on the unstripped site at two hours and daily on day 1, 2 and 3. Testing reagents consisted of […] and PCA formulated at one dose, 100 μM in an aqueous solution.

[6] = tested on: Pseudomonas aeruginosa; assay: Bacterial kill in stripped skin wound of a rodent; format: in vivo; settings: for bactericidal effect on stripped skin wound: topical at various calculated doses, in 48 to 96 hours; for kill of Pseudomonas aeruginosa: topical on stripped skin wound, in 48 hours, both reagents and dose
From the text: Experimental Groups: There were 4 experimental groups. […] Treatment varied by reagent and dosage.

[7] = tested on: stripped skin wound infected with Pseudomonas aeruginosa (ATCC 27853); assay: Histology of stripped, infected and treated mouse skin wound (Example 6); settings: 48 hours; for tissue repair as evidenced by histology: two different doses
[8] = tested on: Staphylococcus aureus ATCC 33591 (MRSA); assay: Kirby-Bauer disc diffusion antimicrobial susceptibility testing; format: cell-based
[9] = tested on: Candida albicans; assay: as above; format: cell-based
From the text: This example describes the method for testing the antimicrobial susceptibility of anthocyanins, anthocyanidins, or metabolites and compounds thereof. The Kirby-Bauer method of disc diffusion was used for testing, following a standard set of procedures recommended by the NCCLS. In this methodology, a set of discs saturated with either testing compounds or a control was placed on inoculated agar plates. The plates were inoculated with organisms including C. difficile, P. acnes, C. prefringens, L. casei, C. albicans, E. coli, ATTC 8739 and ATCC 43895, S. aureus, S. mutans, S. pyogenes, P. aeruginosa and K. pneumonia. The control sample was amoxicillin, an antimicrobial with very effective broad-spectrum antibiotic properties. Samples included delphinidin, pelargonidin, cyanidin CI, 28% cyanindin-3-glucoside (C3G), protocatechuic acid (PCA) and 2,4,6 Trihydroxybenzaldehyde (2,4,6 THBA).
After 18, 24, or 48 hours of incubation, depending upon the microorganism, each plate was examined. The diameters of the zones of complete inhibition were measured, including the diameter of the disc. Zones were measured to the nearest millimeter, using sliding calipers. The size of the zones of inhibition was interpreted by referring to NCCLS standard. […]

[10] = tested on: IGF-1, TGE-β, EGF; assay: Growth factor levels by ELISA in stripped, infected mouse skin (Example 5); format: in vivo, mice
Description: Four different conditions were used: mice had back skin tape stripped and the stripped site (wound) was infected with P. aeruginosa; mice had back skin stripped and were not infected, mice had taped stripped, infected and treated with PCA, mice were tape stripped, uninfected, and treated with PCA. When used, the PCA test reagent was applied topically in an aqueous solution on the stripped site at two hours and 24 hours.
The testing reagents consisted of and PCA formulated at one dose, 25 mM, in an aqueous solution. Levels of IGF-1, TGE-β, and EGF levels in the skin tissue at 48 hours were measured by ELISA. There were two control groups: the stripped skin and the stripped skin and infected.

[11] = female, rat, in vivo
[12] = tested on: MRSA; settings: cited from earlier work
[13] = tested on: Pseudomonas; settings: cited from earlier work
[14] = rat, in vivo; cited from earlier work
[15] = human skin; cited from earlier work
[16] = after ingestion; cited from earlier work
[17] = all tested doses (PCA 25, 50 mM; C3G 100, 200 mM)

Structure (SMILES): CC1(C)S[C@@H]2[C@H](NC(=O)[C@H](N)c3ccc(O)cc3)C(=O)N2[C@H]1C(=O)O [Amoxicillin, amoxicillin, reference compound]
- activity against Pseudomonas aeruginosa [1]: no effect

Structure (SMILES): OC[C@H]1O[C@@H](Oc2cc3c(O)cc(O)cc3[o+]c2-c2ccc(O)c(O)c2)[C@H](O)[C@@H](O)[C@@H]1O [C3G, Cyanidin 3-glucoside]
- activity against P. acnes [2]: bactericidal
- bacterial burden [3]: decreased the bacterial burden
- most effective dose concentration [3]: 100 mM
- bacterial burden ([4]; 100 mM topical): significantly reduced the bacterial burden
- bacterial burden ([4]; 200 mM topical): significantly reduced the bacterial burden
- bacterial burden [4, 17]: decreased the bacterial burden
- all three local growth hormones (IGF-1, TGF-β, EGF) [5]: decrease of all three local growth hormones
- bactericidal effect on stripped skin wound [6]: bactericidal
- kill of Pseudomonas aeruginosa [6]: 10,000 fold
- dermal layer thickness ([7]; C3G 100 mM): thicker
- hair follicles, cellular lining ([7]; C3G 100 mM): single and double cellular lining
- inflammation ([7]; C3G 100 mM): inflammation in the dermis and muscular layer and below
- surface cellularity ([7]; C3G 100 mM): multiple cellular covering of the surface
- vascularity ([7]; C3G 100 mM): prominent
- dermal layer thickness ([7]; C3G 200 mM): thickened
- hair follicles, cellular lining ([7]; C3G 200 mM): single and double cellular lining
- inflammation ([7]; C3G 200 mM): inflammation in the dermis and muscular layer
- surface cellularity ([7]; C3G 200 mM): multiple cells thick
- vascularity ([7]; C3G 200 mM): increased
- tissue repair as evidenced by histology [7]: stimulated tissue repair

Structure (SMILES): O=C(O)c1ccc(O)c(O)c1 [PCA, 3,4 dihydroxybenzoic acid]
- activity against P. acnes [2]: bactericidal
- activity against Staphylococcus aureus ATCC 33591 (MRSA) [8]: effective
- activity against Pseudomonas aeruginosa [1]: some effectiveness
- susceptibility of Candida albicans [9]: susceptible
- bacterial burden [3]: decreased the bacterial burden
- most effective dose concentration [3]: 50 mM
- statistical significance of bacterial burden reduction ([4]; 25 mM topical): statistically significant at 48 hours
- bacterial burden ([4]; 25 mM topical): reduced the bacterial burden at both time periods
- bacterial burden [4, 17]: decreased the bacterial burden
- IGF-1 production ([10]; 25 mM topical at 2 and 24 hours, stripped and infected skin, 48 hours): optimizes the IGF-1 production
- local growth hormones ([10]; 25 mM topical, stripped and infected skin): optimizes the local growth hormones
- EGF response level ([10]; 25 mM topical, stripped, infected and treated wound vs other groups, 48 hours): lowest
- bactericidal effect on stripped skin wound [6]: bactericidal
- kill of Pseudomonas aeruginosa [6]: 10,000 fold
- human relative dose to exceed safety [11]: 350,000 milligrams per day
- biofilm destruction, MRSA [12]: biofilm destroyer
- biofilm destruction, Pseudomonas [13]: biofilm destroyer
- toxicity [14]: greater than 5000 mg/kg body weight
- skin irritation [15]: no skin irritation
- duration of metabolism prior to excretion in the urine and feces [16]: eight
- collagen between epidermis and dermis ([7]; PCA 25 mM): collagen proliferation between the epidermis and dermis; also recorded: collagen layer formation between the epidermis and dermis
- dermal layer thickness ([7]; PCA 25 mM): thickened
- hair follicles, cellular lining ([7]; PCA 25 mM): prominent with multiple cellular lining
- inflammation ([7]; PCA 25 mM): abundant inflammation
- surface cellularity ([7]; PCA 25 mM): abundant and multiple cell layers
- vascularity ([7]; PCA 25 mM): moderate vascularity, but less than that seen in infected untreated group
- dermal layer thickness ([7]; PCA 50 mM): thicker
- hair follicles, cellular lining ([7]; PCA 50 mM): double layer of cells
- inflammation ([7]; PCA 50 mM): increased in the dermis and below the muscle layer
- surface cellularity ([7]; PCA 50 mM): covered with multiple layers of cells
- vascularity ([7]; PCA 50 mM): increased vascularity
- tissue repair as evidenced by histology [7]: stimulated tissue repair
